Data reported in US4690926A, “Boxazomycin A and B, new antibiotics containing benzoxazole nucleus” (Bristol-Myers Company, priority 1986, dated 1987).
Converted amounts (≈) assume the structure as drawn. Where a name gives a salt, the structure may show the parent alone.

What was measured:
[1] = format: physicochemical
[2] = system: Clostridium difficile A21675; format: cell-based; conditions: Clostridioides difficile, GA agar (Nissui), clindamycin-resistant
[3] = system: Propionibacterium acnes A21933; conditions: Cutibacterium acnes
[4] = system: Neisseria gonorrhoeae A15112
[5] = system: Bacillus subtilis PCI 219; conditions: PCI219
[6] = system: Streptococcus pyogenes S-23; conditions: S23
Acidity = format: physicochemical
C. perfringens A9635 [7] = assay: microbe, parasite or virus in culture; format: cell-based; conditions: Clostridium perfringens
S. aureus A20239 = format: cell-based; conditions: Staphylococcus aureus, Nutrient agar (Eiken), kanamycin-resistant
Toxicity, i.m. = conditions: up to a dose of 400 mg/kg (i.m.)
[8] = system: Bacteroides fragilis A22693
E. coli NIHJ = assay: Effect of pH on antimicrobial activity (MIC, Table 8); format: cell-based; conditions: Escherichia coli
[9] = system: Clostridium perfringens A9635; assay: animal or person; format: in vivo, Clostridium perfringens; mice
[10] = system: Mycobacterium smegmatis 607; conditions: Mycolicibacterium smegmatis
[11] = system: Haemophilus influenzae A9729
[12] = system: Pseudomonas aeruginosa D-113; conditions: D113
[13] = system: Staphylococcus aureus Smith; assay: In vivo efficacy in infected mice; design: species or system Staphylococcus aureus; mice; conditions: for ED50: Staphylococcus aureus, im, 100×LD50 challenge in 5% hog gastric mucin, i.m. just before challenge, read-out: PD50
K. pneumoniae D11 = assay: Effect of pH on antimicrobial activity (MIC, Table 8); format: cell-based; conditions: Klebsiella pneumoniae
S. pneumoniae IID = conditions: Streptococcus pneumoniae
[14] = system: Klebsiella pneumoniae D-11; conditions: D11
B. subtilis PCI 219 = assay: Effect of pH on antimicrobial activity (MIC, Table 8); format: cell-based; conditions: Bacillus subtilis
B. fragilis A20926 = assay: as above; format: cell-based; conditions: Bacteroides fragilis
M. smegmatis 607 D46 = format: cell-based, Mycobacterium smegmatis; conditions: Mycolicibacterium smegmatis, Nutrient agar (Eiken), kanamycin-resistant
S. necrophorus A15202 = assay: Effect of pH on antimicrobial activity (MIC, Table 8); format: cell-based; conditions: Fusobacterium necrophorum
B. fragilis A22534 = format: cell-based; conditions: Bacteroides fragilis, GA agar (Nissui), lactamase producer
[15] = system: Peptostreptococcus anaerobius A21905
S. aureus A22421 = format: cell-based; conditions: Staphylococcus aureus, Nutrient agar (Eiken), methicillin-resistant
P. acnes A21933 = assay: Effect of pH on antimicrobial activity (MIC, Table 8); format: cell-based, Propionibacterium acnes; conditions: Cutibacterium acnes
S. aureus BX-1633 = format: cell-based; conditions: Staphylococcus aureus, BX1633; Nutrient agar (Eiken); lactamase producer
C. perfringens A9635 [16] = assay: microbe, parasite or virus in culture; format: cell-based; conditions: Clostridium perfringens; remark: listed apart in the source
M. phlei D88 = conditions: Mycolicibacterium phlei

For `Cc1cc(O)c(C(N)=O)c2nc(-c3nc(CO)ncc3O)oc12` [Boxazomycin A di-sodium salt], the solubility in water [1] was “soluble in water”.
`Cc1cc(O)c(C(N)=O)c2nc(-c3nc(CO)ncc3O)oc12` [Boxazomycin A] gave an MIC [2] of 3.1 µg/mL (≈ 9.8 µM), an MIC [3] of 3.1 µg/mL (≈ 9.8 µM) and an MIC [4] of over 100 µg/mL. The MIC [5] was 3.1 µg/mL (≈ 9.8 µM), the MIC [6] was 3.1 µg/mL (≈ 9.8 µM) and the acidity (Acidity) was “weakly acidic”. The MIC (C. perfringens A9635 [7]; A9635, pH 6) was 0.2 µg/mL (≈ 0.632 µM), the MIC (C. perfringens A9635 [7]; A9635, pH 7) was 3.1 µg/mL (≈ 9.8 µM) and the MIC (S. aureus A20239) was 0.4 µg/mL (≈ 1.26 µM). The toxic symptoms (Toxicity, i.m.) was “did not show any toxic symptoms up to a dose of 400 mg/kg (i.m.)”, the MIC [8] was 6.3 µg/mL (≈ 19.9 µM) and the MIC (E. coli NIHJ; pH 6) was over 100 µg/mL. For the same molecule, the MIC (E. coli NIHJ; pH 7) was over 100 µg/mL, the ED50 ([9]; Clostridium perfringens, A9635, in Mus musculus, im, read-out: PD50) was 220 mg/kg and the “in vivo efficacy relative to in vitro activity” value ([9]; mice, i.m.) was “lower than that expected from its in vitro activity”. The protective effect ([9]; mice, i.m.) was “protective effect in mice against both infections”, the MIC [10] was 1.6 µg/mL (≈ 5.06 µM) and the MIC [11] was over 100 µg/mL. The MIC [12] was over 100 µg/mL, the ED50 [13] was 400 mg/kg and the “in vivo efficacy relative to in vitro activity” value ([13]; i.m.) was “lower than that expected from its in vitro activity”. For the same molecule, the protective effect ([13]; i.m.) was “protective effect in mice against both infections”, the MIC (K. pneumoniae D11; D11, pH 6) was over 100 µg/mL and the MIC (K. pneumoniae D11; D11, pH 7) was over 100 µg/mL. The MIC (S. pneumoniae IID) was 3.1 µg/mL (≈ 9.8 µM), the MIC [14] was over 100 µg/mL and the MIC (B. subtilis PCI 219; PCI219, pH 6) was 0.8 µg/mL (≈ 2.53 µM). The MIC (B. subtilis PCI 219; PCI219, pH 7) was 6.3 µg/mL (≈ 19.9 µM), the MIC (B. fragilis A20926; A20926, pH 6) was 0.05 µg/mL (≈ 0.158 µM) and the MIC (B. fragilis A20926; A20926, pH 7) was 3.1 µg/mL (≈ 9.8 µM). It also gave an MIC (M. smegmatis 607 D46) of 1.6 µg/mL (≈ 5.06 µM), an MIC (S. necrophorus A15202; A15202, pH 6) of 0.4 µg/mL (≈ 1.26 µM) and an MIC (S. necrophorus A15202; A15202, pH 7) of 3.1 µg/mL (≈ 9.8 µM). For the same molecule, the MIC (B. fragilis A22534) was 3.1 µg/mL (≈ 9.8 µM), the “solubility in alkaline water and dimethylformamide” value [1] was “readily soluble” and the “solubility in ethyl acetate, chloroform, benzene and n-hexane” value [1] was “practically insoluble”. The “solubility in water, methanol, ethanol and acetone” value [1] was “slightly soluble”, the MIC [15] was 3.1 µg/mL (≈ 9.8 µM) and the MIC (S. aureus A22421) was 0.8 µg/mL (≈ 2.53 µM). The MIC (P. acnes A21933; A21933, pH 6) was 0.4 µg/mL (≈ 1.26 µM), the MIC (P. acnes A21933; A21933, pH 7) was 6.3 µg/mL (≈ 19.9 µM) and the MIC (S. aureus BX-1633) was 0.8 µg/mL (≈ 2.53 µM). For the same molecule, the MIC (C. perfringens A9635 [16]) was 3.1 µg/mL (≈ 9.8 µM) and the MIC (M. phlei D88) was 0.8 µg/mL (≈ 2.53 µM).
For `Cc1ncc(O)c(-c2nc3c(C(N)=O)c(O)cc(C)c3o2)n1` [Boxazomycin B], the MIC [2] was 6.3 µg/mL (≈ 21 µM), the MIC [3] was 6.3 µg/mL (≈ 21 µM) and the MIC [4] was over 100 µg/mL. The MIC [5] was 1.6 µg/mL (≈ 5.33 µM), the MIC [6] was 12.5 µg/mL (≈ 41.6 µM) and the acidity (Acidity) was “weakly acidic”. It also gave an MIC (C. perfringens A9635 [7]; A9635, pH 6) of 0.4 µg/mL (≈ 1.33 µM), an MIC (C. perfringens A9635 [7]; A9635, pH 7) of 6.3 µg/mL (≈ 21 µM) and an MIC (S. aureus A20239) of 0.8 µg/mL (≈ 2.66 µM). The MIC [8] was 12.5 µg/mL (≈ 41.6 µM), the MIC (E. coli NIHJ; pH 6) was over 100 µg/mL and the MIC (E. coli NIHJ; pH 7) was over 100 µg/mL. The MIC [10] was 3.1 µg/mL (≈ 10.3 µM), the MIC [11] was over 100 µg/mL and the MIC [12] was over 100 µg/mL. The MIC (K. pneumoniae D11; D11, pH 6) was over 100 µg/mL, the MIC (K. pneumoniae D11; D11, pH 7) was over 100 µg/mL and the MIC (S. pneumoniae IID) was 25 µg/mL (≈ 83.3 µM). It also gave an MIC [14] of over 100 µg/mL, an MIC (B. subtilis PCI 219; PCI219, pH 6) of 0.2 µg/mL (≈ 0.666 µM) and an MIC (B. subtilis PCI 219; PCI219, pH 7) of 1.6 µg/mL (≈ 5.33 µM). For the same molecule, the MIC (B. fragilis A20926; A20926, pH 6) was 0.1 µg/mL (≈ 0.333 µM), the MIC (B. fragilis A20926; A20926, pH 7) was 3.1 µg/mL (≈ 10.3 µM) and the MIC (M. smegmatis 607 D46) was 3.1 µg/mL (≈ 10.3 µM). The MIC (S. necrophorus A15202; A15202, pH 6) was 0.4 µg/mL (≈ 1.33 µM), the MIC (S. necrophorus A15202; A15202, pH 7) was 6.3 µg/mL (≈ 21 µM) and the MIC (B. fragilis A22534) was 12.5 µg/mL (≈ 41.6 µM). For the same molecule, the “solubility in alkaline water and dimethylformamide” value [1] was “readily soluble”, the “solubility in ethyl acetate, chloroform, benzene and n-hexane” value [1] was “practically insoluble” and the “solubility in water, methanol, ethanol and acetone” value [1] was “slightly soluble”. The MIC [15] was 6.3 µg/mL (≈ 21 µM), the MIC (S. aureus A22421) was 0.8 µg/mL (≈ 2.66 µM) and the MIC (P. acnes A21933; A21933, pH 6) was 0.2 µg/mL (≈ 0.666 µM). For the same molecule, the MIC (P. acnes A21933; A21933, pH 7) was 6.3 µg/mL (≈ 21 µM), the MIC (S. aureus BX-1633) was 0.8 µg/mL (≈ 2.66 µM) and the MIC (C. perfringens A9635 [16]) was 12.5 µg/mL (≈ 41.6 µM). The MIC (M. phlei D88) was 1.6 µg/mL (≈ 5.33 µM).
In the case of `NC[C@H]1O[C@H](O[C@H]2[C@H](O)[C@@H](O[C@H]3O[C@H](CO)[C@@H](O)[C@H](N)[C@H]3O)[C@H](N)C[C@@H]2N)[C@H](O)[C@@H](O)[C@@H]1O` [Kanamycin, kanamycin, reference compound], the MIC [2] is reported as over 50 µg/mL, the MIC [3] is reported as over 50 µg/mL and the MIC [4] is reported as 0.4 µg/mL (≈ 0.826 µM). It also gave an MIC [5] of 0.2 µg/mL (≈ 0.413 µM), an MIC [6] of 25 µg/mL (≈ 51.6 µM) and an MIC (S. aureus A20239) of over 100 µg/mL. For the same molecule, the MIC [8] was 50 µg/mL (≈ 103 µM), the MIC [10] was 0.8 µg/mL (≈ 1.65 µM) and the MIC [11] was 0.4 µg/mL (≈ 0.826 µM). For the same molecule, the MIC [12] was 25 µg/mL (≈ 51.6 µM), the ED50 [13] was 1.4 mg/kg and the MIC (S. pneumoniae IID) was 25 µg/mL (≈ 51.6 µM). For the same molecule, the MIC [14] was 0.4 µg/mL (≈ 0.826 µM), the MIC (M. smegmatis 607 D46) was over 100 µg/mL and the MIC (B. fragilis A22534) was 50 µg/mL (≈ 103 µM). For the same molecule, the MIC [15] was over 50 µg/mL, the MIC (S. aureus A22421) was 0.8 µg/mL (≈ 1.65 µM) and the MIC (S. aureus BX-1633) was 0.8 µg/mL (≈ 1.65 µM). The MIC (C. perfringens A9635 [16]) was over 50 µg/mL and the MIC (M. phlei D88) was 1.6 µg/mL (≈ 3.3 µM).
